{
  "source": "ChEMBL document CHEMBL3739362",
  "about": "“Brominated Variant of the Lantibiotic NAI-107 with Enhanced Antibacterial Potency” (2015)",
  "type_in_all_cases": "functional",
  "key": {"Enterococcus faecalis [1]": {"system": "Enterococcus faecalis", "assay": "Antibacterial activity against vancomycin-resistant Enterococcus faecalis L560 by broth microdilution assay"}, "Enterococcus faecalis [2]": {"system": "Enterococcus faecalis", "assay": "Antibacterial activity against Enterococcus faecalis L559 by broth microdilution assay"}, "Streptococcus pyogenes": {"system": "Streptococcus pyogenes", "assay": "Antibacterial activity against Streptococcus pyogenes L49 by broth microdilution assay"}, "Streptococcus pneumoniae [3]": {"system": "Streptococcus pneumoniae", "assay": "Antibacterial activity against Streptococcus pneumoniae ATCC 49619 by broth microdilution assay"}, "Streptococcus pneumoniae [4]": {"system": "Streptococcus pneumoniae", "assay": "Antibacterial activity against Streptococcus pneumoniae L44 by broth microdilution assay"}, "Staphylococcus aureus [5]": {"system": "Staphylococcus aureus", "assay": "Antibacterial activity against glycopeptide-intermediate Staphylococcus aureus L3797 by broth microdilution assay"}, "Enterococcus faecium": {"system": "Enterococcus faecium", "assay": "Antibacterial activity against vancomycin-resistant Enterococcus faecium L569 by broth microdilution assay"}, "Staphylococcus aureus [6]": {"system": "Staphylococcus aureus", "assay": "Antibacterial activity against glycopeptide-intermediate Staphylococcus aureus L3798 by broth microdilution assay"}},
  "data": [
    {"smiles": "CN[C@@H](CC(C)C)C(=O)N[C@H]1C(=O)N[C@@H](CC(N)=O)C(=O)N[C@H]2C(=O)N[C@H]3C(=O)N[C@H](C(=O)N[C@@H](C(=O)O)c4cc(O)cc(O)c4-c4cc3ccc4O)[C@H](O)c3ccc(c(Cl)c3)Oc3cc2cc(c3O[C@H]2O[C@@H](CO)[C@H](O)[C@@H](O)[C@@H]2O[C@@H]2C[C@@](C)(N)[C@@H](O)[C@@H](C)O2)Oc2ccc(cc2Cl)[C@H]1O", "values": [
      {"measurement": "MIC", "setting": "Enterococcus faecalis [1]", "result": "> 64", "unit": "µg/mL"},
      {"measurement": "MIC", "setting": "Enterococcus faecalis [2]", "result": 1, "unit": "µg/mL"},
      {"measurement": "MIC", "setting": "Streptococcus pyogenes", "result": 0.5, "unit": "µg/mL"},
      {"measurement": "MIC", "setting": "Streptococcus pneumoniae [3]", "result": 0.25, "unit": "µg/mL"},
      {"measurement": "MIC", "setting": "Streptococcus pneumoniae [4]", "result": 0.5, "unit": "µg/mL"},
      {"measurement": "MIC", "setting": "Staphylococcus aureus [5]", "result": 8, "unit": "µg/mL"},
      {"measurement": "MIC", "setting": "Enterococcus faecium", "result": "> 64", "unit": "µg/mL"},
      {"measurement": "MIC", "setting": "Staphylococcus aureus [6]", "result": 16, "unit": "µg/mL"}
    ]}
  ]
}
